Measurements taken from article PMC12434670 (Journal of Medicinal Chemistry, 2025).
pEC50: −log10 of the molar value.

Legend:
[1] = tested on: A/H1N1 virus A/Virginia/ATCC3/2009 (Virg09); experiment: microbe, parasite or virus in culture; assay type: cell-based, influenza A virus; settings: Influenza A virus, MDCK, read-out: Antiviral EC50 for Virg09 virus
[2] = tested on: A/H1N1 virus A/PR/8/34 (PR8); experiment: microbe, parasite or virus in culture; assay type: cell-based; settings: Influenza A virus, MDCK, read-out: Antiviral EC50 for PR8 virus

SMILES	pEC50 [1]	pEC50 [2]
O=C(NCc1ccoc1)c1cc(F)cc(C(F)(F)F)c1 [Compound 56, 3-Fluoro-N-(Furan-3-ylmethyl)-5-(trifluoromethyl)benzamide]	< 4.00	< 4.00
Cc1cc(CNC(=O)c2cc(F)cc(F)c2)c(C)s1 [Compound 26, 3,5-Difluoro-N-[(2,5-dimethylthiophen-3-yl)methyl]benzamide]	< 4.00	< 4.00
O=C(NCc1cocn1)c1cc(F)cc(C(F)(F)F)c1 [Compound 61, 3-Fluoro-N-(Oxazol-4-ylmethyl)-5-(trifluoromethyl)benzamide]	< 4.00	< 4.00
COc1ccc(C(=O)NCc2cc(C)sc2C)cc1 [Compound 43, N-((2,5-Dimethylthiophen-3-yl)methyl)-4-methoxybenzamide]	< 4.00	< 4.00
Cc1cc(CNC(=O)c2ccc(Cl)cc2)c(C)s1 [Compound 41, 4-Chloro-N-((2,5-dimethylthiophen-3-yl)methyl)benzamide]	< 4.00	< 4.00
Cc1cc(CNC(=O)c2cccc([N+](=O)[O-])c2)c(C)s1 [Compound 34, N-[(2,5-Dimethylthiophen-3-yl)methyl]-3-nitrobenzamide]	< 4.00	< 4.00
Cc1cc(CNC(=O)c2ccc(Cl)c(Cl)c2)c(C)s1 [Compound 44, 3,4-Dichloro-N-((2,5-dimethylthiophen-3-yl)methyl)benzamide]	< 4.00	< 4.00
Cc1cc(CNC(=O)c2cc(Cl)cc(Cl)c2)c(C)s1 [Compound 27, 3,5-Dichloro-N-[(2,5-dimethylthiophen-3-yl)methyl]benzamide]	< 4.00	< 4.00
Cc1cc(CNC(=O)c2cccc(C(F)(F)F)c2)c(C)s1 [Compound 31, N-[(2,5-Dimethylthiophen-3-yl)methyl]-3-(trifluoromethyl)benzamide]	< 4.00	< 4.00
Cc1cc(CNC(=O)c2cc(Br)cc(Br)c2)c(C)s1 [Compound 28, 3,5-Dibromo-N-[(2,5-dimethylthiophen-3-yl)methyl]benzamide]	< 4.00	< 4.00
Cc1cc(CNC(=O)c2ccccc2)c(C)s1 [Compound 40, N-((2,5-Dimethylthiophen-3-yl)methyl)benzamide]	< 4.00	< 4.00
O=C(NCc1cc[nH]n1)c1cc(F)cc(C(F)(F)F)c1 [Compound 60, N-((1H-Pyrazol-3-Yl)methyl)-3-fluoro-5-(trifluoromethyl)benzamide]	< 4.00	< 4.00
Cc1cc(CNC(=O)c2cccc(Br)c2)c(C)s1 [Compound 33, 3-Bromo-N-[(2,5-dimethylthiophen-3-yl)methyl]benzamide]	< 4.00	< 4.00
O=C(NCc1ccncc1)c1cc(F)cc(C(F)(F)F)c1 [Compound 59, 3-Fluoro-N-(Pyridin-4-ylmethyl)-5-(trifluoromethyl)benzamide]	< 4.00	< 4.00
Cc1cc(CNC(=O)c2cccc(F)c2)c(C)s1 [Compound 30, N-[(2,5-Dimethylthiophen-3-yl)methyl]-3-fluorobenzamide]	< 4.00	< 4.00
Cc1ccc(C(=O)NCc2cc(C)sc2C)cc1 [Compound 42, N-((2,5-Dimethylthiophen-3-yl)methyl)-4-methylbenzamide]	< 4.00	< 4.00
O=C(NCc1ccon1)c1cc(F)cc(C(F)(F)F)c1 [Compound 58, 3-Fluoro-N-(Isoxazol-3-ylmethyl)-5-(trifluoromethyl)benzamide]	< 4.00	< 4.00
O=C(NCc1cscn1)c1cc(F)cc(C(F)(F)F)c1 [Compound 62, 3-Fluoro-N-(Thiazol-4-ylmethyl)-5-(trifluoromethyl)benzamide]	< 4.00	< 4.00
Cc1cc(CNC(=O)c2cccc(Cl)c2)c(C)s1 [Compound 32, 3-Chloro-N-[(2,5-dimethylthiophen-3-yl)methyl]benzamide]	< 4.00	< 4.00
